Test results from patent US20240342138A1, “MICROTUBULE TARGETING AGENTS” (BPGbio, Inc., priority 2023, published 2024).
Blank lines part the entries; values can stand above or below the molecule they belong to.

Legend:
[1] = Blood brain barrier permeability (PVDF membrane coated with porcine brain polar lipid extract); type: in vitro ADME; details: for recovery at 4 h, 10 μM: pig, not told
Procedure: Preparation of Donor Solution a) 0.2 mM working solution was prepared by diluting 10 mM stock solution with DMSO. b) 10 μM donor solution (5% DMSO) was prepared by diluting 20 μL of working solution with 380 μL PBS. 2) 150 μL of 10 μM donor solutions to each well of the donor plate, whose PVDF membrane was precoated with 5 μL of 1% brain polar lipid extract (Porcine)/dodecane mixture. Duplicates were prepared. 3) 300 μL of PBS was added to each well of the PTFE acceptor plate. 4) The donor plate and acceptor plate were combined together and incubated for 4h at room temperature with shaking at 300 rpm. 5) Preparation of TO sample: 20 μL donor solution was transferred to new well followed by the addition of 250 μL PBS (DF: 13.5), 130 μL ACN (containing internal standard) as TO sample. 6) Preparation of acceptor sample: The plate was removed from incubator. 270 μL solution was transferred from each acceptor well and mixed with 130 μL ACN (containing internal standard) as acceptor sample. 7) Preparation of donor sample: […] was transferred from each donor well and mixed with 250 μL PBS (DF: 13.5), 130 μL ACN (containing internal standard) as donor sample. 8) Acceptor samples and donor samples were all analyzed by LC/MS/MS.

[2] = tested on: colchicine binding site of tubulin; assay: EBI labeling assay in MIA PaCa2 cells (Western blot); type: cell-based; details: 2 hours compound, then 2 hours 100 μM EBI, FIG. 2, FIG. 3
Procedure: MIA PaCa2 cells were cultured in DMEM+10% FBS and 1% P/S. Cells were plated at 1.5-2×10^6 in 60 mm dishes. For drug treatments, cells were treated the day after plating with 0.1% DMSO or the compounds tested at the concentrations indicated in FIG. 2 for 2 hours.
• Cells were treated with compounds for 2 hours at 37°, 5% CO2 (in the cell culture incubator), and then for an additional 2 hours with 100 μM EBI (with compounds present) under the same conditions. • Cells were then harvested with Trypsin and pelleted at 500 g for 3 minutes. • Cells were rinsed in 1 mL PBS and transferred to clean epi tubes. […] BCA assay plates were incubated for 15 minutes in the 37-degree incubator in the outer molecular lab. • After protein normalization (including addition of reducing Laemmli buffer from a 6× stock) samples were boiled at 95 degrees for 3 minutes and frozen for subsequent Western Blotting.
Significance in difference of treated MIA PaCa-2 cells to 0.1% DMSO treated cells were tested by Student t test (* p<0.05; ** p<0.01; *** p<0.001).

[3] = tested on: HCT116 cells; assay: Kinetochore assembly, immunocytochemistry / confocal microscopy; type: cell-based; details: 300 nM, 24h
Procedure: The HCT116 cells were cultured using DMEM media supplemented with 10% FBS and 1% Pen/Strep. Cells were maintained to a maximum of 80% confluency before being split and plated into coverslips in 12-well plates.
1. HCT116 cells were plated on Poly-D-Lysine German Glass Coverslips (#1.5, 18 mm)
2. After 24h cells were treated with 300 nM of Compound 1 and Nocodozole.
3. After 24h cells were washed briefly with PBS and fixed with warm 4% paraformaldehyde at room temperature for 10 min.
4. Cells were permeabilized and blocked in 10% goat serum, 0.5% Triton-X in PBS for 1 hr.
5. Cells were incubated with Primary antibodies overnight.
6. Washed 3× with PBS for 10 min
7. Incubated with secondary antibodies at room temperature for 1 hr.
8. Washed 3× with PBS for 10 min
9. Coverslips were mounted with ProLong Gold Anti-Fade Mount with DAPI and imaged with Olympus FV1200 MPE Microscope.
10. Images were collected with identical confocal settings for all of the samples and Z-stacked images were projected with maximal projection mode using Fluor View Software.
1. Selected cells of interest using the drawing/selection tools (i.e. rectangle, circle, polygon or freeform).
2. From the Analyze menu selected “Measure.”
3. Selected region with no fluorescence to be my background.
4. Repeated these steps for other cells in the field of view
5. Used the CTCF formula to calculate Mad1 expression:
CTCF=Integrated Density−(Area of selected cell×Mean fluorescence of background readings)
Micrographs were imaged using Olympus FV1200 MPE confocal microscope at 63× oil. White arrows indicate dividing cells. Representative images of N=3 biological replicates. Significance in difference of treated HCT116 cells to untreated cells was tested by Student t test (** p<0.01).

[4] = tested on: Triple Negative Breast Cancer patient-derived organoids CTG-1520, CTG-0896, CTG-1017; assay: Viability of PDO models of taxane resistance (CellTiter-Glo, 5 days); type: cell-based, human; details: same patient before (CTG-1017) and after (CTG-1520) taxane-based chemotherapy
Procedure: FIGS. 9A and 9B show potency of Compound 1 in patient-derived organoid (PDO) models of taxane resistance. Patient-derived organoids were treated with Compound 1, paclitaxel or controls (0.1% DMSO, positive control—10% DMSO) for 5 days. Viability was assessed using the CellTiter-Glo® assay. IC50 and maximal (max) inhibition values were extrapolated from the viability curves. A) Model overview and dose response curves to Compound 1 and paclitaxel. B) Summary of CellTiter-Glo results in all three models tested. Compiled data of N=4 replicates.
CTG-1520 and CTG-0896 were derived from Triple Negative Breast Cancer (TNBC) patients post-treatment, and progression on a taxane-based therapy and the models' resistance to paclitaxel was confirmed by testing in vivo PDX (Patient-derived xenograft) tumor growth. […] Compound 1 and paclitaxel were tested head-to-head in each model in a dose-curve setting. 10% DMSO was used as the positive control for induction of 100% cell cytotoxicity.

[5] = tested on: Triple Negative Breast Cancer patient-derived organoids CTG-1520, CTG-0896, CTG-1017; details: CTG-1520 ex vivo; Champion Oncology Lumen Platform database; cited from earlier work
[6] = tested on: CTG-1520 PDX tumors; details: CTG-1520 in vivo; Champion Oncology Lumen Platform database; cited from earlier work
[7] = tested on: CTG-1017; details: CRO historical data; cited from earlier work

- recovery at 4 h, 10 μM [1]: < 100%
Structure (SMILES): CC(C)NCC(O)COc1ccc(CC(N)=O)cc1 (centres unmarked) [Atenolol, reference compound]

- Permeability ([1]; 10 μM, 4 h): High
- Papp at 4 h, 10 μM ([1]; PAMPA, read-out: Mean Pe): 4.74 ×10⁻⁶ cm/s
- recovery at 4 h, 10 μM [1]: 27.7%
Structure (SMILES): CC(C)NCC(O)COc1cccc2ccccc12 (centres unmarked) [Propranolol, reference compound]

Structure (SMILES): COC(=O)Nc1nc2cc(C(=O)c3cccs3)ccc2[nH]1 [nocodazole, reference compound]
- Formation of EBI:β-tubulin adducts [2]: inhibited formation of the EBI:β-tubulin adducts
- Mitotic spindle formation ([3]; FIG. 4A): lack of proper mitotic spindle formation
- Mad1 signal intensity ([3]; FIG. 4B): increase in Mad1 signal intensity

Structure (SMILES): CC(=O)O[C@H]1C(=O)[C@@]2(C)[C@H]([C@H](OC(=O)c3ccccc3)[C@]3(O)C[C@H](OC(=O)[C@H](O)[C@@H](NC(=O)c4ccccc4)c4ccccc4)C(C)=C1C3(C)C)[C@]1(OC(C)=O)CO[C@@H]1C[C@@H]2O [paclitaxel]
- Retention of potency in matched PDO models [4]: did not
- max effect [5]: 29.1%
- TGI [6]: 10%
- Sensitivity of model in vivo [7]: sensitive
